Source: paper PMC11983575, “Study on the synthesis and biological activity of kojic acid triazol thiosemicarbazide Schiff base derivatives” (Journal of Enzyme Inhibition and Medicinal Chemistry, 2025)

Key:
[1] = target: mushroom tyrosinase (Agaricus bisporus, UniProt C7FF04); assay: In vitro mushroom tyrosinase inhibition (L-DOPA substrate); type: biochemical; conditions: 475 nm, read-out: IC50 (μM) ± SD, inhibitory tyrosinase activity
Protocol: The mushroom tyrosinase inhibitory activity was determined according to previous described method. Briefly, 168 μl of phosphate buffer (0.1 M, pH 6.8), 10 μl of mushroom tyrosinase (0.5 mg/ml, Sigma Chemical, St. Louis, MO) and 2 μl of the inhibitor solution were placed in the wells of a 96-well micro plate. After pre-incubation for 20 min at 37 °C, 20 μl of 2.0 mg/ml L-DOPA (3,4-dihydroxyphenylalanine, Sigma Chemical, St. Louis, MO) was added and the enzyme activity was measured at 475 nm every 60 s for 180 s in a Microplate Reader (Bio-Rad Laboratories, Inc., Hercules, CA). Kojic acid and phosphate buffer were respectively used as positive and negative control. The extent of inhibition by the test compounds was expressed as the percentage of concentration necessary to achieve 50% inhibition (IC50). The percentage of inhibition was calculated as follows: inhibitory rate (%) = [Ac − At)/Ac] × 100. Ac is the absorbance of the negative control and At is the absorbance of the test compound. Each concentration was analysed in three independent experiments run in triplicate. The IC50 values were determined by the data analysis software GraphPad Prism 8 (La Jolla, CA).
The tyrosinase inhibition measurements of compounds 6a–6x were carried out using L-DOPA as substrate. Kojic acid was selected as a positive control compound. […]. […] Moreover, inhibitory activity of compound with hydroxyl group at papa position is better than the inhibitory activity of compound with hydroxyl group at meta position, and inhibitory activity of compound with hydroxyl group at meta position is better than the inhibitory activity of compound with hydroxyl group at ortho position. […]. […] In addition, with the increase of atomic radius, the inhibitory activity gradually decreases. (3) The inhibitory activity of alkoxy substituted compound is better than that of alkyl substituted compound. (4) Comparing the tyrosinase inhibitory activity of compounds with halogen atom (6b–6d, 6q–6s) and compounds with methyl or methoxy (6e–6f, 6t–6u), when the hydrogen (R^2) was replaced by the methyl (R^2), the inhibitory activity was decreased.

[2] = DPPH free radical scavenging activity assay; conditions: DPPH 150 μM, 30 min, 517 nm; read-out: DPPH/IC50 (μM) ± SD
Protocol: The anti-oxidation effect on DPPH radical was determined by a slightly modified version of a previously described DPPH radical scavenging assay. Reaction mixtures consisted of 100 μl of DPPH (150 μM), 20 μl of increasing concentration of test compounds and the volume was adjusted to 200 μl in each well with DMSO. The assay solution was then incubated at room temperature (25 °C) for 30 min in the dark. After the incubation, absorbance at 517 nm was measured by using UV-2600 spectrophotometer. The experiments were undertaken in triplicate. DMSO was used as a control. Ascorbic acid was used as antioxidant standard for comparison of the activity. The calculation of DPPH radical scavenging activity was followed by this formula: DPPH radical scavenging activity %=absorbance of standard−absorbance of sample/Absorbance of standard×100

[3] = ABTS radical cation scavenging activity assay; conditions: 734 nm; read-out: ABTS+/IC50 (μM) ± SD
Protocol: ABTS free radical scavenging activity was performed according to the procedure described by Zhang et al.[40] Test solution of ABTS decolourisation assay was prepared by mixing 2.45 mM potassium persulfate and 7 mM ABTS at 8:12 volume/volume ratio. The working solution was kept in the dark at room temperature for 12–18 h. Before ABTS radical scavenging test, the ABTS test solution was diluted with DMSO to absorbance of 0.7 (±0.02) at 734 nm. One millilitre of diluted ABTS test solution was added to 10 μl of DMSO or test sample. After initial mixing, the working solution was kept in the dark at room temperature for 2–6 min, and the absorbance was measured at 734 nm. This test was carried out in triplicate. DMSO was used as a control. Ascorbic acid was used as antioxidant standard for comparison of the activity. The absorbance of test samples was calculated by the following formula. ABTS scavenging ability %=absorbance of standard−absorbance of sample/absorbance of standard×100.

Sequence of mushroom tyrosinase (C7FF04 1-392): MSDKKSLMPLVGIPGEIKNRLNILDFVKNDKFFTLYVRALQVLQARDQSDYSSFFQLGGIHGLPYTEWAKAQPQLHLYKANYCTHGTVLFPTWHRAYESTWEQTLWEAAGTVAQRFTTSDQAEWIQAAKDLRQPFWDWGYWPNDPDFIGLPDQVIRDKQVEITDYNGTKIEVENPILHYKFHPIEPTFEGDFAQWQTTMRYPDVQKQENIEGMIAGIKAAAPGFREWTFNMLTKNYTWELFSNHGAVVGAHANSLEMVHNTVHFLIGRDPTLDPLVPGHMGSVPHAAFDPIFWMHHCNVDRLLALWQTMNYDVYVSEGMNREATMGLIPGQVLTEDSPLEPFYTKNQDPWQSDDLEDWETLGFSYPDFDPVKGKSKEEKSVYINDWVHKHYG

In the case of “2-(4-((1-((5-Hydroxy-4-oxo-4H-pyran-2-yl)methyl)-1H-1,2,3-triazol-5-yl)methoxy)-3-methylbenzylidene)hydrazinecarbothioamide [Compound 6o]”, the IC50 [1] is reported as 12.38 ± 0.014 µM, the IC50 [2] is reported as 193.9 ± 0.022 µM and the IC50 [3] is reported as 17.95 ± 0.048 µM.
